From patent publication US20150074835A1, “TRANSGENIC MOUSE EXPRESSING HUMAN LIPOPROTEIN (A) WITH DISABLED VITAMIN C GENE AND ITS USE AS A DISEASE TREATMENT MODEL” (priority 2013, published 2015)

Tested on: Lpa+Gulo (−/−) mouse
Test: Lipoprotein-cholesterol, apo(a) particle and apoB-100 particle modulation (SPIFE / IFE of sera) under ascorbic acid supplementation
Assay type: in vivo
Conditions: 30 mg/L, 60 mg/L or 150 mg/L ascorbic acid in drinking water in addition to 500 ppm vitamin C in food (full supplementation); FIG. 6-8
Description: SPIFE Cholesterol Profiling (FIG. 2): The presence of complete Lp(a) lipoprotein particles in the Lp(a)+GULO(−/−) transgenic mouse serum was confirmed using the electrophoresis method with Helena (Beaumont, Tex.) SPIFE Cholesterol Profiling and Immunofixation electrophoresis (IFE). Immunofixation Electrophoresis (IFE) using the mouse sera was conducted on individual apo(a) (FIG. 3) containing particles and human apoB-100 containing particles (FIG. 4) as well, using human specific apo(a) and apoB-100 antibodies at Health Diagnostic Laboratory, Inc. (Richmond, Va.). The bands represent apo(a) and apoB-100 protein respectively in transgenic mouse and visualization of the same in serum derived from female and male mouse. Lipoprotein-cholesterol, Apo(a) particle, and ApoB-100 particle Modulation (FIG. 6, FIG. 7, and FIG. 8): The analysis was conducted on mouse sera from the Lpa+Gulo (−/−)mouse supplemented with either 30 mg/L, 60 mg/L or 150 mg/L of ascorbic acid provided in drinking water in addition to 500 ppm vitamin C provided in food (full supplementation). […] Sample order in FIGS. 6-8 correspond to the following key, with 30 vc referring to 30 mg/L Vitamin C group, 60 vc referring to 60 mg/L Vitamin C group, and sc referring to fully supplemented (150 mg/L Vitamin C+500 ppm Vitamin C in food) control group. The first three wells of each row were not used.

O=C1O[C@H]([C@@H](O)CO)C(O)=C1O [ascorbate, ascorbic acid]
modulation of the whole spectrum of lipoprotein cholesterols and/or lipoprotein particles in mouse sera: could be modulated
